Laboratory results from ChEMBL document CHEMBL1201862, “PubChem BioAssay data set” (2004).
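Five compound concentrations were applied to cells in 96-well plates for 48 hours; endpoints were derived by simple linear interpolation of the resulting dose-response curve. GI50: concentration for 50% inhibition of growth.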 Activity calls are given as the source filed them. Rule as the data show it: active = GI50 up to about 1.1 µM and inactive = higher.

Experiments:
Assay in all cases: NCI anticancer screen, dose series, 48 h
[1] = test system: COLO 205
[2] = test system: KM12
[3] = test system: HOP-18
[4] = test system: U-251
[5] = test system: CAKI-1
[6] = test system: MOLT-4
[7] = test system: SF-295
[8] = test system: A498
[9] = test system: EKVX
[10] = test system: TK-10
[11] = test system: UACC-62
[12] = test system: BT-549
[13] = test system: T47D
[14] = test system: A549
[15] = test system: K562
[16] = test system: OVCAR-4
[17] = test system: Hs-578T
[18] = test system: Malme-3M
[19] = test system: HCT-116
[20] = test system: OVCAR-5

Measured: GI50

O=C1/C(=C/c2ccc(O)c(O)c2)CCC/C1=C\c1ccc(O)c(O)c1
inactive: [1] 7.03 µM | [2] 3.95 µM | [3] 2.81 µM | [4] 2.92 µM | [5] 3.68 µM | [6] 2.42 µM | [7] 8.07 µM | [8] 7.64 µM | [9] 14.3 µM | [10] 3.79 µM | [11] 2.86 µM | [12] 4.74 µM | [13] 3.87 µM | [14] 7.41 µM | [15] 3.71 µM | [16] 5.38 µM | [17] 3.18 µM | [18] 2.46 µM | [19] 2.37 µM | [20] 14 µM

C/N=c1\ss/c(=N\C(=S)N(C)C)n1C
inactive: [2] > 100 µM | [3] > 100 µM | [4] > 100 µM | [5] > 100 µM | [6] > 100 µM | [7] > 100 µM | [8] > 100 µM | [9] > 100 µM | [10] 41.1 µM | [11] > 100 µM | [14] > 100 µM | [15] > 100 µM | [16] > 100 µM | [18] > 100 µM | [19] > 100 µM | [20] > 100 µM

CCOC(=O)NC(=O)c1cn(C2OC(COC(=O)CCCCCCCCC(=O)OCC3OC(n4cc(C(=O)NC(=O)OCC)c(=O)[nH]c4=O)C4OC(C)(C)OC34)C3OC(C)(C)OC32)c(=O)[nH]c1=O (centres undefined)
inactive: [2] 73.8 µM | [3] > 100 µM | [5] > 100 µM | [6] 35.6 µM | [7] > 100 µM | [8] > 100 µM | [9] > 100 µM | [10] > 100 µM | [11] > 100 µM | [14] 90.4 µM | [15] 40.8 µM | [16] 57 µM | [18] > 100 µM | [19] 39.6 µM | [20] > 100 µM

O=C(O)C1C2CCC(O2)C1C(=O)N1CCCCC1 (centres undefined)
inactive: [1] 1.95 µM | [2] 16.2 µM | [3] 12.9 µM | [4] 4.2 µM | [6] 5.06 µM | [7] 10.4 µM | [8] 1.28 µM | [9] 4.02 µM | [10] 2.99 µM | [11] 5.26 µM | [14] 22.8 µM | [16] 10.8 µM | [18] 10.6 µM | [19] 10.2 µM | [20] 26.5 µM

COC1(OC)CC2C(=O)N(Cc3ccccc3)C1CC2S(=O)(=O)c1ccccc1 (centres undefined)
inactive: [1] > 100 µM | [2] > 100 µM | [3] > 100 µM | [4] > 100 µM | [6] > 100 µM | [7] > 100 µM | [9] > 100 µM | [10] > 100 µM | [11] > 100 µM | [14] > 100 µM | [15] > 100 µM | [18] > 100 µM | [19] > 100 µM

CCC12C=CCN3CCC4(c5cc(C6(C(=O)OC)CCCCCc7c6[nH]c6ccccc76)c(OC)cc5N(C)C4C(O)(C(=O)OC)C1OC(C)=O)C32 (centres undefined)
inactive: [1] 2.93 µM | [2] 2.55 µM | [3] 2.34 µM | [4] 2.08 µM | [5] 2.7 µM | [6] 2.14 µM | [7] 1.91 µM | [8] 2.4 µM | [9] 3.57 µM | [10] 2.39 µM | [11] 1.64 µM | [14] 3.02 µM | [15] 2.82 µM | [16] 2.95 µM | [18] 1.87 µM | [19] 2.9 µM | [20] 1.9 µM

COc1cccc2c1C(=O)c1c(O)c3c(c(O)c1C2=O)C[C@@](O)(C(C)=O)C[C@@H]3OC1CC(N(Cc2ccccc2)Cc2ccccc2)C(O)C(C)O1 (some centres undefined)
inactive: [1] 14.6 µM | [2] 13.1 µM | [3] > 45.5 µM | [4] 13.4 µM | [5] 6.03 µM | [7] 13.6 µM | [8] 28.5 µM | [9] 39.4 µM | [10] 13.7 µM | [11] 16.6 µM | [12] > 27.5 µM | [13] 11.9 µM | [14] 4.55 µM | [15] 3.64 µM | [16] 15.1 µM | [17] 16.9 µM | [18] 13.3 µM | [19] 1.84 µM | [20] 20.5 µM

CCOC(=O)NC(=O)c1cn(CCOC(=O)CCCCCCCCC(=O)OCCn2cc(C(=O)NC(=O)OCC)c(=O)[nH]c2=O)c(=O)[nH]c1=O
inactive: [2] > 100 µM | [3] > 100 µM | [5] > 100 µM | [6] > 100 µM | [7] > 100 µM | [8] > 100 µM | [9] > 100 µM | [10] > 100 µM | [11] > 100 µM | [14] > 100 µM | [15] > 100 µM | [16] > 100 µM | [18] > 100 µM | [19] > 100 µM | [20] > 100 µM

CCCCCCCCCC(=O)CC(=O)c1ccc(O)cc1O
inactive: [1] > 100 µM | [2] 21.4 µM | [3] 20.1 µM | [4] 26.9 µM | [5] 23.7 µM | [6] 17.6 µM | [7] 25.6 µM | [9] 25.9 µM | [10] 40.8 µM | [11] 21.2 µM | [14] 31.3 µM | [15] 29.1 µM | [16] 42.1 µM | [18] 52.6 µM | [19] 26.1 µM | [20] 21.1 µM

Cc1cccc(Cl)c1NC(=O)c1cccc([N+](=O)[O-])c1O
inactive: [1] 51.5 µM | [2] 21.3 µM | [3] 28.5 µM | [4] 33.7 µM | [5] 46.1 µM | [6] 29.2 µM | [7] 28.9 µM | [8] 33 µM | [9] 39.6 µM | [11] 25.4 µM | [14] 35.7 µM | [15] 36.7 µM | [16] 24.5 µM | [18] 27 µM | [19] 43.3 µM | [20] 23.9 µM

COc1cc(C(C#N)NNC(=O)c2ccccc2O)ccc1O (centres undefined)
active: [4] 0.843 µM | [11] 0.887 µM | [14] 0.662 µM | [15] 0.622 µM
inactive: [1] 28.6 µM | [2] 3.85 µM | [3] 4.91 µM | [5] 5.46 µM | [6] 6.15 µM | [7] 3.28 µM | [10] 4.11 µM | [16] 5.33 µM | [18] 9.4 µM | [19] 2.26 µM | [20] 10.7 µM

CO[C@@]12CC(=O)/C(=C(O)\C=C\c3ccccc3)C(=O)[C@]1(OC)Cc1ccccc1O2
inactive: [1] 47.5 µM | [2] 19.8 µM | [3] 35.6 µM | [4] 21.1 µM | [6] 29.7 µM | [7] 29.8 µM | [8] 33.3 µM | [9] 38.5 µM | [10] 42.8 µM | [11] 21.9 µM | [14] 25.7 µM | [15] 33.7 µM | [16] 53.8 µM | [18] 91 µM | [19] 30.1 µM | [20] 41.7 µM

CCC12C=CCN3CCC4(C(=C(C(=O)OC)C1)Nc1ccccc14)[C@H]32 (some centres undefined)
inactive: [1] 18.4 µM | [2] 25.8 µM | [3] 26.5 µM | [5] > 100 µM | [6] 26.7 µM | [7] 28.3 µM | [8] 29.6 µM | [9] 51.1 µM | [10] 68.9 µM | [11] 21.3 µM | [14] 34.7 µM | [15] 18.8 µM | [16] 29.4 µM | [18] 42.4 µM | [19] 30.8 µM | [20] 70.8 µM

Cc1cc(C)n(-c2ccnc3cc(Cl)ccc23)n1
inactive: [1] > 100 µM | [2] > 100 µM | [3] > 100 µM | [4] > 100 µM | [6] > 100 µM | [7] > 100 µM | [8] > 100 µM | [9] > 100 µM | [10] > 100 µM | [11] > 100 µM | [14] > 100 µM | [15] > 100 µM | [16] > 100 µM | [18] > 100 µM | [19] > 100 µM | [20] > 100 µM

O=C(NCCNCCO)N/N=C/c1ccccc1
inactive: [2] > 100 µM | [3] > 100 µM | [4] > 100 µM | [6] > 100 µM | [7] > 100 µM | [10] > 100 µM | [11] > 100 µM | [14] > 100 µM | [15] > 100 µM | [16] > 100 µM | [18] > 100 µM | [19] > 100 µM

O=[As](O)(O)c1cc(/N=N/c2ccc(-c3ccc(/N=N/c4cc([As](=O)(O)O)c(O)cc4O)cc3)cc2)c(O)cc1O
inactive: [1] > 100 µM | [2] > 100 µM | [3] > 100 µM | [4] > 100 µM | [5] > 79.6 µM | [6] > 100 µM | [7] > 100 µM | [8] > 56 µM | [9] > 100 µM | [10] > 100 µM | [11] > 100 µM | [14] > 100 µM | [15] > 55.5 µM | [16] > 42.9 µM | [18] > 69.2 µM | [19] > 100 µM | [20] > 69.5 µM
